Assay results published in paper PMC4106271 (Journal of Medicinal Chemistry, 2014).

Columns and labels:
α1β1γ2S GABAA receptors = biological target: T1, α1β1γ2S GABAA receptors (Homo sapiens, UniProt P14867+P18505); assay: Two-microelectrode voltage clamp, IGABA modulation, α1β1γ2S; type: cell-based; settings: for nH: Hill coefficient
T1 construct: expressed in transfected cells; host or cells: Xenopus laevis oocytes injected with cRNA (pCMV cDNA templates)
Experimental: Preparation of stage V–VI oocytes from X. laevis and synthesis of capped runoff poly(A) cRNA transcripts from linearized cDNA templates (pCMV vector) was performed as previously described.[49] […] Follicle membranes from isolated oocytes were enzymatically digested with 2 mg/mL collagenase (type 1A, Sigma–Aldrich, Vienna, Austria).
Selected oocytes were injected with 10–50 nL of DEPC-treated water (diethyl pyrocarbonate, Sigma, Vienna, Austria) containing the different GABAA cRNAs at a concentration of approximately 300–3000 pg·nL^–1·subunit^–1.
To ensure expression of the γ2S subunit in the case of α1/2/3/5β2/3γ2S receptors, cRNAs were mixed in a ratio of 1:1:10. […] The amount of cRNAs was determined by means of a NanoDrop ND-1000 (Kisker-Biotech, Steinfurt, Germany).
Oocytes were stored at +18 °C in modified ND96 solution (90 mM NaCl, 1 mM CaCl2, 1 mM KCl, 1 mM MgCl2·6H2O, and 5 mM HEPES [4-(2-hydroxyethyl)-1-piperazineethanesulfonic acid], pH 7.4, all from Sigma–Aldrich, Vienna, Austria).
Chloride currents through GABAA receptors (IGABA) were measured at room temperature (+21 ± 1 °C) by means of a two-microelectrode voltage clamp technique making use of a Turbo TEC-05X amplifier (npi electronic, Tamm, Germany). IGABA were elicited at a holding potential of –70 mV. Data acquisition was carried out by means of an Axon Digidata 1322A interface using pCLAMP v.10 (Molecular Devices, Sunnyvale, CA). The modified ND96 solution was used as bath solution.
GABA and the studied derivatives were applied by means of the ScreeningTool (npi electronic, Tamm, Germany) fast perfusion system as described previously.[50] To elicit IGABA, the chamber was perfused with 120 μL of GABA- or compound-containing solution at a volume rate of 300 μL/s.[34] Care was taken to account for possible slow recovery from increasing levels of desensitization in the presence of high drug concentrations. The duration of washout periods was therefore extended from 1.5 min (<10 μM compounds) to 30 min (≥10 μM compounds). Oocytes with maximal current amplitudes >3 μA were discarded to exclude voltage clamp errors.
Stimulation of chloride currents by modulators of the GABAA receptor was measured at a GABA concentration eliciting between 3% and 7% of the maximal current amplitude (EC3–7). The GABA EC3–7 was determined for each oocyte individually. Enhancement of the chloride current was defined as (IGABA+compd/IGABA) – 1, where IGABA+compd is the current response in the presence of a given compound and IGABA is the control GABA current. IGABA-max reflects the maximal IGABA enhancement. […] Statistical significance was calculated by paired Student t-test with a confidence interval of <0.05.

male C57BL/6N mice = assay: Elevated plus maze test; type: in vivo; settings: for time spent in open arms (OA) as percentage of total time: 30 min after application, EPM; for effect in the EPM test: ip, 30 min before test
Experimental: Male mice (C57BL/6N) were obtained from Charles River Laboratories (Sulzfeld, Germany). For maintenance, mice were group-housed (maximum five mice per type IIL cage) with free access to food and water. At least 24 h before the commencement of experiments, mice were transferred to the testing facility, where they were given free access to food and water. The temperature in the maintenance and testing facilities was 23 ± 1 °C; the humidity was 40–60%; a 12 h light–dark cycle was in operation (lights on from 07:00 to 19:00). Only male mice aged 3–6 months were tested.
Compounds were applied by intraperitoneal (ip) injection 30 min before each test. Testing solutions were prepared in a solvent composed of 0.9% NaCl solution with 10% dimethyl sulfoxide (DMSO) and 3% Tween 80. […] All doses are indicated as milligrams per kilogram of body weight of the animal.
The animals’ behavior was tested over 5 min on an elevated plus maze 1 m above ground consisting of two closed and two open arms, each 50 × 5 cm in size. The test instrument was built from gray PVC; the height of closed arm walls was 20 cm. Illumination was set to 180 Lux. Animals were placed in the center, facing an open arm. Analysis of open and closed arm entries and time on open arm was automatically done with Video-Mot 2 equipment and software (TSE Systems, Bad Homburg, Germany).[34]

[1] = Estimation of plasma levels after ip application (UHPLC-MS/MS); type: in vivo, mice; settings: mouse plasma
Experimental: At each time point, mice were euthanized and blood samples (500–800 μL) were collected and compiled into ethylenediaminetetraacetic acid (EDTA)-coated microtubes (1.6 mg of EDTA/sample) and centrifuged at 12 000 rpm for 5 min at 4 °C. Plasma samples were transferred into 1.5 mL tubes and stored at −80 °C until analysis.
Plasma calibrators were prepared by spiking corresponding stock solutions into a blank plasma sample.
Samples were vortexed at 1400 rpm for 10 min and then centrifuged at 13200g for 20 min at 10 °C. The supernatant was transferred into a 96-deep-well plate for drying under nitrogen gas flow (Evaporex EVX-96, Apricot Designs, Monrovia, CA) and redissolved in 200 μL of injection solvent (65% 10 mM ammonium formate + 0.05% formic acid, 35% acetonitrile + 0.05% formic acid) before MS/MS analysis.
Separation was performed at 55 °C on a Kinetex XB-C18 column, 100 × 2.1 mm, 1.7 μm particle size (Phenomenex; Torrance, CA); mobile phase of (A) 0.05% formic acid in 10 mM ammonium formate and (B) 0.05% formic acid in ACN, gradient 40% B for 1 min, linear gradient to reach 88% B after 5.3 min, shifted to 100% B for 1 min, and back to equilibrium condition of 40% B for 0.7 min; flow rate of 0.5 mL/min; total run time of 7 min. Sample injected volume was 1 μL and autosampler was set at 10 °C. Needle wash solution was MeOH/ACN/IPA/H2O (1:1:1:1 v/v/v/v). Flexible cube was set at a flow rate of 1 mL/min for 20 s.

T1 sequence (P14867 28-456): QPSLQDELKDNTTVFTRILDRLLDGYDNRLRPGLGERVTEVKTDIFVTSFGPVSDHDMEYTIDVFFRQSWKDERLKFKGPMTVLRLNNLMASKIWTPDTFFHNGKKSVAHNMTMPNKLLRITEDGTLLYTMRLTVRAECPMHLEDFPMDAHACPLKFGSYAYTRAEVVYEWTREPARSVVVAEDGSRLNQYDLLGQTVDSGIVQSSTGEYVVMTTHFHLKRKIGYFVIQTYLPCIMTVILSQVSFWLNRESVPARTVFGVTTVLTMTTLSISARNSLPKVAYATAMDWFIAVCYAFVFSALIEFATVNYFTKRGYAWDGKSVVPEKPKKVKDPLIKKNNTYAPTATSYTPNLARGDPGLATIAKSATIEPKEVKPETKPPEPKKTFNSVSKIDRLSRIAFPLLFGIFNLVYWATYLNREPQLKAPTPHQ
T1 sequence (P18505 26-474): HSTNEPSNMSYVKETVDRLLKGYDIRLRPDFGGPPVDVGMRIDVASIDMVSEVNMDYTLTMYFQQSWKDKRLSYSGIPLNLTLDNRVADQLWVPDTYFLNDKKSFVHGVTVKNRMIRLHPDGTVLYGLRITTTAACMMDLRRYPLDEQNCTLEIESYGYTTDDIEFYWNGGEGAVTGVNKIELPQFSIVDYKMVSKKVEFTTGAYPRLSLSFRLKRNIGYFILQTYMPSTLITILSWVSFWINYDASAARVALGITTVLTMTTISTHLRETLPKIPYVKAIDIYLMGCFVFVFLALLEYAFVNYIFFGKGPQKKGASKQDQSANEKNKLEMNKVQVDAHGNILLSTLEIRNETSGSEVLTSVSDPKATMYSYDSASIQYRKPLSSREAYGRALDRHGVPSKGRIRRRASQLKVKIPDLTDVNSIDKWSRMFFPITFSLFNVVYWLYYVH
T1 sequence (P18507 40-467 isoform P18507-1 partner limits assumed): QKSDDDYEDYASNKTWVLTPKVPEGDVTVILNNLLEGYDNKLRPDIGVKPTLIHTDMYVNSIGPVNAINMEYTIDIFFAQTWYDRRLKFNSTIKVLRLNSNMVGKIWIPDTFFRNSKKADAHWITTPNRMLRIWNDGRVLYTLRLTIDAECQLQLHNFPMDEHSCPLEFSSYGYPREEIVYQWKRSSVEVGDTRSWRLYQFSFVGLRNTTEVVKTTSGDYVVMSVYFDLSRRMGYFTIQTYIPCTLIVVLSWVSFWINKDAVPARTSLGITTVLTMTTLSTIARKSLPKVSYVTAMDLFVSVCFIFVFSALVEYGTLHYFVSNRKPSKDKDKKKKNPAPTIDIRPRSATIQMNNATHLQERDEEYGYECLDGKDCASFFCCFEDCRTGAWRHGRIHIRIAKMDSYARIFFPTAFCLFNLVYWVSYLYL

SMILES | EC50 (α1β1γ2S GABAA receptors) [µM] | nH (α1β1γ2S GABAA receptors) | time spent in open arms (OA) as percentage of total time (male C57BL/6N mice; 0.3 mg/kg ip) | effect in the EPM test (male C57BL/6N mice) | mean plasma concn ([1]; 1 mg/kg body weight ip) [ng/mL] | mean plasma concn ([1]; 3 mg/kg body weight ip) [ng/mL] | mean plasma concn ([1]; 10 mg/kg body weight ip) [ng/mL] | time spent in open arms (OA) as percentage of total time (male C57BL/6N mice; 3 mg/kg ip)
CCCN(CCC)C(=O)/C=C/C=C/c1ccc2c(c1)OCO2 [Compound 23, (2E,4E)-5-(1,3-benzodioxol-5-yl)-N,N-dipropyl-2,4-pentadienamide] | 57.5 ± 7.3 | 1.8 ± 0.1 | 45.6% ± 3.2% | anxiolytic effects | 60.6 ± 14.5 | 194.0 ± 50.2 | 593.0 ± 92.4 | –
CCCCN(CCCC)C(=O)/C=C/C=C/c1ccc2c(c1)OCO2 [Compound 25, (2E,4E)-5-(1,3-Benzodioxol-5-yl)-N,N-dibutyl-2,4-pentadienamide] | 15.9 ± 4.9 | 1.3 ± 0.6 | 39.8% ± 4.1% | anxiolytic effects | – | – | – | 43.9% ± 4.3%
